Experimental data taken from article PMC7915682, “Pursuing Orally Bioavailable Hepcidin Analogues via Cyclic N-Methylated Mini-Hepcidins” (Biomedicines, 2021).
Where two headings read alike, the source gives them in different places. Where a SMILES comes first, the peptide text is derived from it. Where no end group is shown, it is not given here.

Assays:
[1] = target: T1, GFP-tagged ferroportin (FPN) (Homo sapiens, UniProt Q9NP59); test: FPN-GFP degradation (internalisation) assay by flow cytometry in HEK293:T-REx-FPN-GFP cells; format: cell-based; conditions: 24 h treatment; for EC50: FPN degradation dose-response, HEK293:T-REx-FPN-GFP cells; for FPN Degradation % ± SEM: peptide 10 μM, normalised with respect to hepcidin (1 μM), n = 3
T1 construct: expressed in transfected cells
T1 sequence (Q9NP59 1-571): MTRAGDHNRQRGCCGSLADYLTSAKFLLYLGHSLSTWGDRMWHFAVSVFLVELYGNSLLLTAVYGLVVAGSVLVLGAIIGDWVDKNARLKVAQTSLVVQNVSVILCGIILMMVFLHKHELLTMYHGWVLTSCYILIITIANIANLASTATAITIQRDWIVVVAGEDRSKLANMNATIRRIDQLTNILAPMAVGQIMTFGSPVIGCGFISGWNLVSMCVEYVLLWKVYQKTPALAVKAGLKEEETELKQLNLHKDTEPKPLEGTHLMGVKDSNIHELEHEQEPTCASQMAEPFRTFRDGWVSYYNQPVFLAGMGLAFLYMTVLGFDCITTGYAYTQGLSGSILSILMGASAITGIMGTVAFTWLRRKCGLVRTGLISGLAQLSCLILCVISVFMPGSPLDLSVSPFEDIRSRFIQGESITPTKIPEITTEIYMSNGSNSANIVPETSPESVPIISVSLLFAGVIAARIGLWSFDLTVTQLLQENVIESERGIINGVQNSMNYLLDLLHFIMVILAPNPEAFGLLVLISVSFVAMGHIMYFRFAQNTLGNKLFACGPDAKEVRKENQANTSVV
Description: HEK293:T-REx^TM-FPN-GFP cells, described previously, were cultured in T75 flasks containing FPN-GFP media (Dulbecco’s Modified Eagle’s Medium (DMEM) containing high glucose, GlutaMAX^TM supplement, hydroxyethyl piperazineethanesulfonic acid (HEPES), 10% tetracycline screened foetal bovine serum (FBS), 1% penicillin/streptomycin, and 100 μg/mL of hygromycin) and maintained at 37 °C in a humidified atmosphere of 5% CO2.
HEK293:T-REx^TM-FPN-GFP cells were plated in FPN-GFP media in the presence of 20 µM FAC (ferric ammonium citrate = ammonium iron (III) citrate) and induced on the following day with 50 ng/mL of doxycycline hydrochloride. After 24 h, doxycycline hydrochloride was washed off with PBS (phosphate buffered saline) and the cells were treated with peptides for another 24 h. Cells were then trypsinised, centrifuged (5 min at 1000 rpm), and resuspended in PBS at approximately 1 × 10^4 cell/µL. The intensity of green fluorescence was measured by flow cytometry performed on a Becton Dickinson LSR Fortessa-X-20. Cells not induced with doxycycline hydrochloride were used to establish a gate to exclude background fluorescence, and cells induced to express FPN-GFP but not treated with any peptides were used as the positive control. Each peptide treatment was repeated independently at least three times except for the initial screening of the mono N-methylated analogues (Figure 2), which was only performed once. The results were expressed as the % of the reduction in fluorescence with respect to hepcidin-treated cells according to the following formula: % FPN Degradation = (1 − (average FHepc − Fχ)/(average FHepc − average Funtreated)) × 100, where F corresponds to the GFP gate median, and χ to the peptide analysed.
Peptide bioactivity was measured using HEK293:T-REx^TM-FPN-GFP cells stably expressing a GFP-tagged ferroportin (FPN) construct that was treated overnight with different concentrations of hepcidin or analogues. FPN-GFP expression and FPN-GFP internalisation and degradation in response to hepcidin treatment were confirmed by confocal microscopy, and the % of GFP fluorescence was then analysed by flow cytometry and expressed as a % FPN degradation. […] This promising result led us to design a second series of analogues that included multiple N-methylated residues with and without backbone cyclisation.

[2] = Serum stability assay (25% human male serum, 37 °C, LC-MS); format: in vitro ADME
Description: Human male serum was centrifuged at 20,000 g for 10 min and the clear part of the supernatant was then diluted to 25% (v/v) with Milli-Q® water and incubated at 37 °C for 15 min. Each peptide sample was dissolved in triplicate at a final concentration of 20 μM in pre-incubated 25% serum, or Milli-Q® water as a control. […] Supernatant was then removed and transferred into vials for liquid chromatography mass spectrometry (LC-MS) analysis (50 μL injection and multiple reaction monitoring (MRM) protocol, Table S2). The effect of these strategies on the stability of mini-hepcidin analogues was investigated by incubating selected derivatives in human male serum at 37 °C and collecting samples at various time points. The results were then quantitated by liquid chromatography-mass spectrometry (LC-MS). We were unable to determine the serum stability of all analogues as the recovery from serum and detection of the peptides was very low. Modification of sample preparation protocols, optimisation of LC/MS conditions, and reducing serum concentration to 25% were unable to improve yield/detection. We would predict that this poor recovery is due to high binding of peptides to serum proteins, which is consistent with native hepcidin, which binds to α-2-macroglobulin [35, 36]. […] Effect of macrocyclisation and N-methylation on the stability of selected mini- hepcidin derivatives. A) Illustration of sites most susceptible to enzymatic attack in mini- hepcidin derivatives. B) Serum stability analysis of selected […]. Human male serum was centrifuged at 20,000 g for 10 minutes and the clear part of the supernatant was then diluted to 25% (v/v) with Milli-Q® water and incubated at 37 °C for 15 minutes. Each peptide sample was dissolved in triplicate at a final concentration of 20 μM in pre-incubated 25% serum, or Milli-Q® water as a control. Aliquots of 100 μL were removed at different time points and quenched with 100 μL of 15% trichloroacetic acid (TCA), followed by […] Supernatant was then removed and transferred into vials for liquid chromatography mass spectrometry (LC- MS) analysis (50 μL injection and multiple reaction monitoring (MRM) protocol). Error bars […] Comparison between Hep9, 2, […]9, 9. (also on this page, place not known: […] Hep9 2 […]] 7 Proteolytic attack Reduced proteolytic attack Blocked proteolytic attack 0 50 100 150 200 0 50 100 Time /min % Peptide Remaining 2 9 A B 7) (1 picture or pasted object on this page, not shown here)

Caco-2 = Caco-2 in vitro model (preliminary); format: in vitro ADME; conditions: preliminary results, data not shown
Excerpt: It has been proposed that by enhancing the lipophilicity of peptides, the intestinal permeability could be improved by facilitating transcellular absorption (passive diffusion). Thus, our rationale was to improve the permeability of Hep9 2, by increasing its lipophilicity via both cyclisation and multiple N-methylations. […] Cyclisation and N-methylation appear to facilitate the crossing of the artificial lipid membrane for cHep9[Ser^1, MeThr^2, MeIle^8] 13, but this enhancement was not statistically significant relative to atenolol, a marker for poor transcellular permeability, or Hep9 2, (Figure 5). […] Preliminary results from a Caco-2 in vitro model were consistent with the PAMPA data (data not shown).

Compound: CC[C@H](C)[C@H](NC(=O)[C@H](CS)NC(=O)[C@@H](NC(=O)[C@@H]1CCCN1C(=O)[C@H](Cc1ccccc1)NC(=O)[C@H](Cc1c[nH]cn1)NC(=O)[C@@H](NC(=O)[C@@H](N)CC(=O)O)[C@@H](C)O)[C@@H](C)CC)C(=O)N[C@@H](Cc1ccccc1)C(=O)O [Peptide 2, reference compound]
- EC50 [1]: 2110 nM
- half-life at 20 μM ([2]; male, human, serum): ~3 min

Compound: CC[C@H](C)[C@@H]1NC(=O)[C@@H](NC(=O)[C@@H](NC(=O)[C@@H]2CCCN2C(=O)[C@H](Cc2ccccc2)NC(=O)[C@H](Cc2c[nH]cn2)NC(=O)[C@@H](NC(=O)[C@@H](N)CC(=O)O)[C@@H](C)O)[C@@H](C)CC)CSSC[C@@H](C(=O)N[C@@H](CCCCN)C(=O)N[C@H](C(=O)O)[C@@H](C)O)NC(=O)[C@@H]2CSSC[C@@H]3NC(=O)[C@@H]4CSSC[C@H](NC(=O)[C@H](Cc5ccccc5)NC1=O)C(=O)N[C@@H](CSSC[C@H](NC(=O)[C@H](CCCCN)NC(=O)[C@H](CO)NC(=O)[C@H](CCCNC(=N)N)NC(=O)[C@H](Cc1c[nH]cn1)NC3=O)C(=O)NCC(=O)N[C@@H](CCSC)C(=O)N2)C(=O)NCC(=O)N4 [Peptide 1, reference compound]
- EC50 [1]: 9.38 nM
- FPN Degradation % ± SEM [1]: 100 ± 2.6%

Compound: STHFPICIF-OH [Peptide 3]
- EC50 [1]: 326 nM

Compound: CC[C@H](C)[C@@H]1NC(=O)[C@H](CS)NC(=O)[C@H]([C@@H](C)CC)NC(=O)[C@@H]2CCCN2C(=O)[C@H](Cc2ccccc2)NC(=O)[C@H](Cc2c[nH]cn2)NC(=O)[C@H]([C@@H](C)O)NC(=O)[C@H](CC(=O)O)NC(=O)[C@H](Cc2ccccc2)NC1=O [Peptide 8]
- half-life at 20 μM ([2]; serum (25% v/v), 20 μM peptide in 25% human male serum, 37 °C, read-out: peptide half-life in serum): ~8 min

Compound: CC[C@H](C)[C@H]1C(=O)N[C@@H](Cc2ccccc2)C(=O)N[C@@H](CC(=O)O)C(=O)N[C@@H]([C@@H](C)O)C(=O)N[C@@H](Cc2c[nH]cn2)C(=O)N[C@@H](Cc2ccccc2)C(=O)N2CCC[C@H]2C(=O)N(C)[C@@H]([C@@H](C)CC)C(=O)N[C@@H](CS)C(=O)N1C [Peptide 12, c(DTHFP[N-Me I]C[N-Me I]F)]
- EC50 [1]: 2900 nM

Compound: CC[C@H](C)[C@@H](C(=O)N[C@@H](Cc1ccccc1)C(=O)O)N(C)C(=O)[C@H](CS)NC(=O)[C@H]([C@@H](C)CC)N(C)C(=O)[C@@H]1CCCN1C(=O)[C@H](Cc1ccccc1)NC(=O)[C@H](Cc1c[nH]cn1)NC(=O)[C@H]([C@@H](C)O)N(C)C(=O)[C@@H](N)CO [Peptide 7, S[N-Me T]HFP[N-Me I]C[N-Me I]F] (HELM PEPTIDE1{S.[meT].H.F.P.[meI].C.[meI].F}$$$$V2.0; N-terminus assumed)
- EC50 [1]: 1890 nM

Compound: CC[C@H](C)[C@H](NC(=O)[C@@H]1CCCN1C(=O)[C@H](Cc1ccccc1)NC(=O)[C@H](Cc1c[nH]cn1)NC(=O)[C@H]([C@@H](C)O)N(C)C(=O)[C@@H](N)CO)C(=O)N[C@@H](CS)C(=O)N(C)[C@H](C(=O)N[C@@H](Cc1ccccc1)C(=O)O)[C@@H](C)CC [Peptide 6, S[N-Me T]HFPIC[N-Me I]F] (HELM PEPTIDE1{S.[meT].H.F.P.I.C.[meI].F}$$$$V2.0; N-terminus assumed)
- EC50 [1]: 2170 nM
- half-life at 20 μM ([2]; 25% (v/v) human male serum, 20 μM peptide in 25% human male serum, 37 °C, read-out: peptide half-life in serum): ~12 min
- stability relative to Hep9 ([2]; 25% human male serum, 37 °C, ratio of half-lives): approximately four

Compound: CC[C@H](C)[C@H](NC(=O)[C@H](CS)NC(=O)[C@H]([C@@H](C)CC)N(C)C(=O)[C@@H]1CCCN1C(=O)[C@H](Cc1ccccc1)NC(=O)[C@H](Cc1c[nH]cn1)NC(=O)[C@H]([C@@H](C)O)N(C)C(=O)[C@@H](N)CO)C(=O)N[C@@H](Cc1ccccc1)C(=O)O [Peptide 5, S[N-Me T]HFP[N-Me I]CIF] (HELM PEPTIDE1{S.[meT].H.F.P.[meI].C.I.F}$$$$V2.0; N-terminus assumed)
- EC50 [1]: 40700 nM

Compound: c(DTH[N-Me F]PICI[N-Me F]) [Peptide 11]
- FPN Degradation % ± SEM [1]: 63 ± 1.6%

Compound: CC[C@H](C)[C@@H]1NC(=O)[C@H](CS)NC(=O)[C@H]([C@@H](C)CC)NC(=O)[C@@H]2CCCN2C(=O)[C@H](Cc2ccccc2)NC(=O)[C@H](Cc2c[nH]cn2)NC(=O)[C@H]([C@@H](C)O)NC(=O)[C@H](CO)NC(=O)[C@H](Cc2ccccc2)NC1=O [Peptide 9] (HELM PEPTIDE1{C.I.F.S.T.H.F.P.I}$PEPTIDE1,PEPTIDE1,1:R1-9:R2$$$V2.0)
- EC50 [1]: 266 nM

Compound: CC[C@H](C)[C@@H]1NC(=O)[C@H](CS)NC(=O)[C@H]([C@@H](C)CC)NC(=O)[C@@H]2CCCN2C(=O)[C@H](Cc2ccccc2)NC(=O)[C@H](Cc2c[nH]cn2)NC(=O)[C@H]([C@@H](C)O)NC(=O)[C@H](CC(=O)O)NC(=O)CNC(=O)CNC(=O)CNC(=O)CNC(=O)[C@H](Cc2ccccc2)NC1=O [Peptide 10] (HELM PEPTIDE1{C.I.F.G.G.G.G.D.T.H.F.P.I}$PEPTIDE1,PEPTIDE1,1:R1-13:R2$$$V2.0)
- EC50 [1]: 158 nM

Compound: DTHFP[N-Me I]C[N-Me I]F [Peptide 4]
- FPN Degradation % ± SEM [1]: Not active

Compound: CC[C@H](C)[C@@H]1NC(=O)[C@@H]2CCCN2C(=O)[C@H](Cc2ccccc2)NC(=O)[C@H](Cc2c[nH]cn2)NC(=O)[C@H]([C@@H](C)O)N(C)C(=O)[C@H](CO)NC(=O)[C@H](Cc2ccccc2)NC(=O)[C@H]([C@@H](C)CC)N(C)C(=O)[C@H](CS)NC1=O [Peptide 13, c(S[N-Me T]HFPIC[N-Me I]F)] (HELM PEPTIDE1{S.[meT].H.F.P.I.C.[meI].F}$PEPTIDE1,PEPTIDE1,1:R1-9:R2$$$V2.0)
- Caco-2 permeability (Caco-2): paralleled these observations
- EC50 [1]: 140 nM
